Experimental findings from EP1175402B1, “PIPERIDINE DERIVATIVES USEFUL AS CCR5 ANTAGONISTS” (SCHERING CORPORATION, priority 1999, dated 2000) are described below.

Molecules are shown by their SMILES.

For the test, the target named is T1, human CCR5 chemokine receptor (Homo sapiens, UniProt P51681).
T1 construct: expressed in transfected cells; host or cells: NIH 3T3 cells (murine), membranes
T1 sequence (P51681 whole entry): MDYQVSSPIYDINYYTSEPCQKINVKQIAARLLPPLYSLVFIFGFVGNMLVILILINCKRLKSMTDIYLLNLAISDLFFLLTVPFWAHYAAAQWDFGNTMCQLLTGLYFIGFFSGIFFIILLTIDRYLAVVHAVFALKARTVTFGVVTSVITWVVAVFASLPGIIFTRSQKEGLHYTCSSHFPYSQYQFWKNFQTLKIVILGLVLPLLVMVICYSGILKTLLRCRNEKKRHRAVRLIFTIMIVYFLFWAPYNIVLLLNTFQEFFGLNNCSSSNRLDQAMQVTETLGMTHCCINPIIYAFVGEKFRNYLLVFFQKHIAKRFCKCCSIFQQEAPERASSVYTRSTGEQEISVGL
In words: CCR5 membrane binding assay (inhibition of 125I-RANTES binding). The settings on record: membranes from NIH 3T3 cells expressing the human CCR5 chemokine receptor, one hour incubation. The method, then:
CCR5 Membrane Binding Assay:
A high throughput screen utilizing a CCR5 membrane binding assay identifies inhibitors of RANTES binding. This assay utilizes membranes prepared from NIH 3T3 cells expressing the human CCR5 chemokine receptor which have the ability to bind to RANTES, a natural ligand for the receptor. Using a 96-well plate format, membrane preparations are incubated with ^125I-RANTES in the presence or absence of compound for one hour. Compounds are serially diluted over a wide range of 0.001 ug/ml to 1 ug/ml and tested in triplicates. Reaction cocktails are harvested through glass fiber filters, and washed thoroughly. Total counts for replicates are averaged and data reported as the concentration required to inhibit 50 percent of total ^125I-RANTES binding.
As for `Cc1ncnc(C)c1C(=O)N1CCC(C)(N2CCC(C(Oc3ccccn3)c3ccc(Br)cc3)CC2)CC1` (single isomer, unassigned) [Example 4C], affinity was put at a Ki of 0.5 nM.
As for `Cc1ccnc(C)c1C(=O)N1CCC(C)(N2CCC(C(Oc3ccccn3)c3ccc(S(C)(=O)=O)cc3)CC2)CC1` (stereo not shown) [Example 2], the figure is 9.6 nM; as for `CO/N=C(/c1ccc(OC(F)(F)F)cc1)C1CCN(C2(C)CCN(C(=O)c3c(C)cccc3C)CC2)CC1` [Example 7U], 62.5 nM; as for `CCC(=O)OC(c1ccc(Br)cc1)C1CCN(C2(C)CCN(C(=O)c3c(C)cccc3C)CC2)CC1` (stereo not shown) [Example 1B], 14 nM.

Broadly, the Ki is a measure of affinity in units of concentration, obtained from inhibition or displacement.
